Source: patent US12391737B2, “Soluble NPY2 receptor agonists” (Boehringer Ingelheim International GmbH, priority 2020, dated 2025)

What was measured:
Solubility determination = details: for Sol6: pH 6; for Sol7: pH 7
Method in brief: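 Shake-flask style: 10 mg/ml peptide (TFA salt), 0.1 M sodium diphosphate pH 6.4/7.0, 600 rpm, 2 h, RT; filter; dilute 1 mg/ml in 50% MeCN; RP-UPLC, 0–100% B over 2 min, 50 °C. Solubility = sample/control area ratio. Final pH recorded.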

[1] = biological target: T1, Human Neuropeptide Y2 Receptor (Homo sapiens, UniProt P49146); assay: Radioligand binding competition assay (RLB); details: Table 3, 125I-PYY(1-36) competition; read-out: Ki
T1 construct: purchased CHEMICON HTS066M
T1 sequence (P49146 1-381): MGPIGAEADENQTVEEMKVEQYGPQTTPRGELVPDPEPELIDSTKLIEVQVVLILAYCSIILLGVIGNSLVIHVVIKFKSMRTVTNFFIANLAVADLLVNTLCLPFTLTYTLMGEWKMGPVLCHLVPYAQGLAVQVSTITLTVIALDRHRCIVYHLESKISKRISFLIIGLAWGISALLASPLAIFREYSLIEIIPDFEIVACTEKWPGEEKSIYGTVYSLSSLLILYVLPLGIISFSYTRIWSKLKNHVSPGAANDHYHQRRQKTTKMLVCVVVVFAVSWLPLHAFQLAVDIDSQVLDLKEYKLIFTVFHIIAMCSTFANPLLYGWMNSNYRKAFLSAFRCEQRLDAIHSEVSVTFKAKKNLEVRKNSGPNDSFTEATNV
Method in brief: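 Filtration binding assay on human Y2 receptor membrane preparation, 0.5 μg protein per well, in 50 mM HEPES pH 7.4 containing 5 mM MgCl2, 1 mM CaCl2 and 0.2% ovalbumin. Plates shake 2 h at room temperature before harvest and scintillation counting.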

SMILES	Sol6 (Solubility determination)	Sol7 (Solubility determination)	Ki [1]
CC(C)CC(=O)N[C@@H](C)C(=O)N1CCC[C@H]1C(=O)N[C@@H](CCC(=O)O)C(=O)N[C@@H](CCCCNC(=O)CCCCCNC(=O)CC[C@H](NC(=O)CCCCCCCCCCCCCCCCC(=O)O)C(=O)O)C(=O)N1CCC[C@H]1C(=O)N[C@@H](CCC(=O)O)C(=O)N[C@@H](CCC(=O)O)C(=O)N[C@@H](CC(=O)O)C(=O)N[C@@H](C)C(=O)N[C@H](C(=O)N1CCC[C@H]1C(=O)N[C@@H](CCC(=O)O)C(=O)N[C@@H](CCC(=O)O)C(=O)N[C@@H](CC(C)C)C(=O)N[C@@H](CCC(N)=O)C(=O)N[C@@H](CCCNC(=N)N)C(=O)N[C@@H](Cc1ccc(O)cc1)C(=O)N[C@@H](Cc1ccc(O)cc1)C(=O)N[C@H](C(=O)N[C@@H](CO)C(=O)N[C@@H](CC(C)C)C(=O)N[C@@H](CCCNC(=N)N)C(=O)N[C@@H](Cc1c[nH]cn1)C(=O)N[C@@H](Cc1ccc(O)cc1)C(=O)N[C@@H](Cc1ccc(O)cc1)C(=O)N[C@@H](CC(N)=O)C(=O)N[C@@H](Cc1c[nH]c2ccccc12)C(=O)N[C@@H](CC(C)C)C(=O)N[C@@H](CO)C(=O)N[C@@H](CCCNC(=N)N)C(=O)N[C@@H](CCC(N)=O)C(=O)N[C@@H](CCCNC(=N)N)C(=O)N[C@@H](Cc1ccc(O)cc1)C(N)=O)C(C)C)[C@@H](C)O [Compound 155, N{alpha-4}-(3-methylbutanoyl)-N{epsilon-7}-(6-[(4S)-4-carboxy-4-(17-carboxyheptadecanamido)butanamido]hexanoyl)-[4A,7K,9E,13T,18Q,22V,28Y,30W,31L,32S]-hPYY(4-36)]	>10.0 mg/mL	>10.0 mg/mL	7.6 nM
CC(C)CC(=O)N[C@@H](C)C(=O)N1CCC[C@H]1C(=O)N[C@@H](CCC(=O)O)C(=O)N[C@@H](CCCCNC(=O)CCCCCNC(=O)CC[C@H](NC(=O)CCCCCCCCCCCCCCCCC(=O)O)C(=O)O)C(=O)N1CCC[C@H]1C(=O)N[C@@H](CCC(=O)O)C(=O)N[C@@H](CCC(=O)O)C(=O)N[C@@H](CC(=O)O)C(=O)N[C@@H](C)C(=O)N[C@H](C(=O)N1CCC[C@H]1C(=O)N[C@@H](CCC(=O)O)C(=O)N[C@@H](CCC(=O)O)C(=O)N[C@@H](CC(C)C)C(=O)N[C@@H](CCC(N)=O)C(=O)N[C@@H](CC(C)C)C(=O)N[C@@H](Cc1ccc(O)cc1)C(=O)N[C@@H](Cc1ccc(O)cc1)C(=O)N[C@H](C(=O)N[C@@H](CO)C(=O)N[C@@H](CC(C)C)C(=O)N[C@@H](CCCNC(=N)N)C(=O)N[C@@H](Cc1c[nH]cn1)C(=O)N[C@@H](Cc1ccc(O)cc1)C(=O)N[C@@H](Cc1ccc(O)cc1)C(=O)N[C@@H](CC(N)=O)C(=O)N[C@@H](Cc1c[nH]c2ccccc12)C(=O)N[C@@H](CC(C)C)C(=O)N[C@H](C(=O)N[C@@H](CCCNC(=N)N)C(=O)N[C@@H](CCC(N)=O)C(=O)N[C@@H](CCCNC(=N)N)C(=O)N[C@@H](Cc1ccc(O)cc1)C(N)=O)[C@@H](C)O)C(C)C)[C@@H](C)O [Compound 130, N{alpha-4}-(3-methylbutanoyl)-N{epsilon-7}-(6-[(4S)-4-carboxy-4-(17-carboxyheptadecanamido)butanamido]hexanoyl)-[4A,7K,9E,13T,18Q,19L,22V,28Y,30W,31L]-hPYY(4-36)]	9.9 mg/mL	10.0 mg/mL	9.36 nM
CC(C)CC(=O)N[C@@H](C)C(=O)N1CCC[C@H]1C(=O)N[C@@H](CCC(=O)O)C(=O)N[C@@H](CCCCNC(=O)CCCCCNC(=O)CC[C@H](NC(=O)CCCCCCCCCCCCCCCCC(=O)O)C(=O)O)C(=O)N1CCC[C@H]1C(=O)N[C@@H](CCC(=O)O)C(=O)N[C@@H](CCC(=O)O)C(=O)N[C@@H](CC(=O)O)C(=O)N[C@@H](C)C(=O)N[C@H](C(=O)N1CCC[C@H]1C(=O)N[C@@H](CCC(=O)O)C(=O)N[C@@H](CCC(=O)O)C(=O)N[C@@H](CC(C)C)C(=O)N[C@@H](CCC(N)=O)C(=O)N[C@@H](CO)C(=O)N[C@@H](Cc1ccc(O)cc1)C(=O)N[C@@H](Cc1ccc(O)cc1)C(=O)N[C@H](C(=O)N[C@@H](CO)C(=O)N[C@@H](CC(C)C)C(=O)N[C@@H](CCCNC(=N)N)C(=O)N[C@@H](Cc1c[nH]cn1)C(=O)N[C@@H](Cc1ccc(O)cc1)C(=O)N[C@@H](Cc1ccc(O)cc1)C(=O)N[C@@H](CC(N)=O)C(=O)N[C@@H](Cc1c[nH]c2ccccc12)C(=O)N[C@@H](CC(C)C)C(=O)N[C@H](C(=O)N[C@@H](CCCNC(=N)N)C(=O)N[C@@H](CCC(N)=O)C(=O)N[C@@H](CCCNC(=N)N)C(=O)N[C@@H](Cc1ccc(O)cc1)C(N)=O)[C@@H](C)O)C(C)C)[C@@H](C)O [Compound 141, N{alpha-4}-(3-methylbutanoyl)-N{epsilon-7}-(6-[(4S)-4-carboxy-4-(17-carboxyheptadecanamido)butanamido]hexanoyl)-[4A,7K,9E,13T,18Q,19S,22V,28Y,30W,31L]-hPYY(4-36)]	9.6 mg/mL	9.7 mg/mL	8.17 nM

Stronger by Ki [1], values ahead:

Sol6 (Solubility determination)	Sol7 (Solubility determination)	Ki [1]	SMILES
9.7 mg/mL	9.9 mg/mL	3.32 nM	CC(C)CC(=O)N[C@@H](C)C(=O)N1CCC[C@H]1C(=O)N[C@@H](CCC(=O)O)C(=O)N[C@@H](CCCCNC(=O)CCCCCNC(=O)CC[C@H](NC(=O)CCCCCCCCCCCCCCCCC(=O)O)C(=O)O)C(=O)N1CCC[C@H]1C(=O)N[C@@H](CCC(=O)O)C(=O)N[C@@H](CCC(=O)O)C(=O)N[C@@H](CCC(N)=O)C(=O)N[C@@H](C)C(=O)N[C@H](C(=O)N1CCC[C@H]1C(=O)N[C@@H](CCC(=O)O)C(=O)N[C@@H](CCC(=O)O)C(=O)N[C@@H](CC(C)C)C(=O)N[C@@H](CCC(N)=O)C(=O)N[C@@H](CCCNC(=N)N)C(=O)N[C@@H](Cc1ccc(O)cc1)C(=O)N[C@@H](Cc1ccc(O)cc1)C(=O)N[C@H](C(=O)N[C@@H](CO)C(=O)N[C@@H](CC(C)C)C(=O)N[C@@H](CCCNC(=N)N)C(=O)N[C@@H](Cc1c[nH]cn1)C(=O)N[C@@H](Cc1ccc(O)cc1)C(=O)N[C@@H](Cc1ccc(O)cc1)C(=O)N[C@@H](CC(N)=O)C(=O)N[C@@H](Cc1c[nH]c2ccccc12)C(=O)N[C@@H](CC(C)C)C(=O)N[C@H](C(=O)N[C@@H](CCCNC(=N)N)C(=O)N[C@@H](CCC(N)=O)C(=O)N[C@@H](CCCNC(=N)N)C(=O)N[C@@H](Cc1ccc(O)cc1)C(N)=O)[C@@H](C)O)C(C)C)[C@@H](C)O [Compound 9, N{alpha-4}-(3-methylbutanoyl)-N{epsilon-7}-(6-[(4S)-4-carboxy-4-(17-carboxyheptadecanamido)butanamido]hexanoyl)[4A,7K,9E,11Q,13T,18Q,22V,28Y,30W,31L]-hPYY(4-36)]
9.8 mg/mL	10.0 mg/mL	3.39 nM	CC(C)CC(=O)N[C@@H](C)C(=O)N1CCC[C@H]1C(=O)N[C@@H](CCC(=O)O)C(=O)N[C@@H](CCCCNC(=O)CCCCCNC(=O)CC[C@H](NC(=O)CCCCCCCCCCCCCCCCC(=O)O)C(=O)O)C(=O)N1CCC[C@H]1C(=O)N[C@@H](CCC(=O)O)C(=O)N[C@@H](CCC(=O)O)C(=O)N[C@@H](CC(=O)O)C(=O)N[C@@H](CO)C(=O)N[C@@H](CO)C(=O)N1CCC[C@H]1C(=O)N[C@@H](CCC(=O)O)C(=O)N[C@@H](CCC(=O)O)C(=O)N[C@@H](CC(C)C)C(=O)N[C@@H](CCC(N)=O)C(=O)N[C@@H](CCCNC(=N)N)C(=O)N[C@@H](Cc1ccc(O)cc1)C(=O)N[C@@H](Cc1ccc(O)cc1)C(=O)N[C@H](C(=O)N[C@@H](C)C(=O)N[C@@H](CC(C)C)C(=O)N[C@@H](CCCNC(=N)N)C(=O)N[C@@H](Cc1c[nH]cn1)C(=O)N[C@@H](Cc1ccc(O)cc1)C(=O)N[C@@H](Cc1ccc(O)cc1)C(=O)N[C@@H](CC(N)=O)C(=O)N[C@@H](Cc1c[nH]c2ccccc12)C(=O)N[C@@H](CC(C)C)C(=O)N[C@H](C(=O)N[C@@H](CCCNC(=N)N)C(=O)N[C@@H](CCC(N)=O)C(=O)N[C@@H](CCCNC(=N)N)C(=O)N[C@@H](Cc1ccc(O)cc1)C(N)=O)[C@@H](C)O)C(C)C [Compound 24, N{alpha-4}-(3-methylbutanoyl)-N{epsilon-7}-(6-[(4S)-4-carboxy-4-(17-carboxyheptadecanamido)butanamido]hexanoyl)[4A,7K,9E,12S,18Q,22V,23A,28Y,30W,31L]-hPYY(4-36)]
